The results in this text go back to ChEMBL document CHEMBL5380794, “Discovery of a Potent and Selective STAT5 PROTAC Degrader with Strong Antitumor Activity In Vivo in Acute Myeloid Leukemia” (J Med Chem, 2023).

The target in one data set is Protein cereblon (Homo sapiens, UniProt Q96SW2). Description: Binding affinity to GST-tagged wild type human CRBN assessed as inhibition constant by TR-FRET assay.
The test system of the next data set is MOLM-13. The experiment in a line: Antiproliferative activity against human MOLM-13 cells assessed as cell growth inhibition measured for 4 days by celltiter-glo assay. As to conditions: MOLM-13, 96 h.
For the next data set, the system named is RS4-11. Description: Antiproliferative activity against human RS4-11 cells assessed as maximal cell growth inhibition measured for 4 days by celltiter-glo assay relative to control. It is filed as functional. Conditions: time 4 day.
A short description of data set [1]: Clearance in SCID mouse at 150 mg/kg, ip. Conditions: in vivo. The class given is ADME, organism-based.
A further data set deals with Mus musculus. The experiment in a line: In vivo induction of degradation of STAT5 in human MV4-11 cells xenografted in SCID mouse assessed as reduction in STAT5 levels at 150 mg/kg, ip measured at 1 hrs by immunoblotting analysis. The class given is functional, organism-based.
Data set [2] can be described thus: In vivo induction of degradation of STAT5 in human MV4-11 cells xenografted in SCID mouse assessed as reduction in STAT5 levels at 150 mg/kg, ip measured at 24 hrs by immunoblotting analysis. It is filed as functional. Also on record: scale not given: the % may be the effect or the level left.
The test system of data set [3] is MV4-11. The experiment in a line: Antitumor activity against human MV4-11 cells xenografted in SCID mouse assessed as tumor growth inhibition at 50 mg/kg, ip administered 5 days a week for 3 weeks. It is filed as functional. Conditions: MV4-11, 504 h, read-out: TGI.
For data set [4], the system named is MV4-11. Description: Antitumor activity against human MV4-11 cells xenografted in SCID mouse assessed as tumor growth inhibition at 100 mg/kg, ip administered 5 days a week for 3 weeks. It is filed as functional. Conditions: MV4-11, 504 h, read-out: TGI.
The target of the next data set is T1, STAT5A/STAT5B (Homo sapiens, UniProt P42229+P51692).
T1 sequence (P42229 whole entry): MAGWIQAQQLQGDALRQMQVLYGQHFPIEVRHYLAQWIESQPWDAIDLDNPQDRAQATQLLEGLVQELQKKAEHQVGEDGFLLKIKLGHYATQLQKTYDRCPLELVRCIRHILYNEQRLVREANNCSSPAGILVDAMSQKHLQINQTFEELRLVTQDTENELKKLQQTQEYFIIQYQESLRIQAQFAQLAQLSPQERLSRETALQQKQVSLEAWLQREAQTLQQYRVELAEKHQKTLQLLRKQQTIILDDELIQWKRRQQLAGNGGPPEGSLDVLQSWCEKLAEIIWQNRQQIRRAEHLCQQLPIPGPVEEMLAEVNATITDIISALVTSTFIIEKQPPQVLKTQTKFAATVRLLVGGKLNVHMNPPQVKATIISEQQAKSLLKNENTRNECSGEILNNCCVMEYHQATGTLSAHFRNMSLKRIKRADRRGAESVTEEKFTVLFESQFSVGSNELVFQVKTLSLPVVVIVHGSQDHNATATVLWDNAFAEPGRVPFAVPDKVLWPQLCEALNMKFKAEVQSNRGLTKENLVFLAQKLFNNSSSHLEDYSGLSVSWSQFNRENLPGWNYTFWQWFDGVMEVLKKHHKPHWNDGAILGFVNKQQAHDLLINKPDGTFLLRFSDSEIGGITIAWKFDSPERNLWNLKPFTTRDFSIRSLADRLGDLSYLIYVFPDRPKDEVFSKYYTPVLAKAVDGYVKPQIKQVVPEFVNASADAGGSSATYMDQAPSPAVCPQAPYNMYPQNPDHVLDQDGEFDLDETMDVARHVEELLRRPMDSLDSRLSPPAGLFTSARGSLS
T1 sequence (P51692 whole entry): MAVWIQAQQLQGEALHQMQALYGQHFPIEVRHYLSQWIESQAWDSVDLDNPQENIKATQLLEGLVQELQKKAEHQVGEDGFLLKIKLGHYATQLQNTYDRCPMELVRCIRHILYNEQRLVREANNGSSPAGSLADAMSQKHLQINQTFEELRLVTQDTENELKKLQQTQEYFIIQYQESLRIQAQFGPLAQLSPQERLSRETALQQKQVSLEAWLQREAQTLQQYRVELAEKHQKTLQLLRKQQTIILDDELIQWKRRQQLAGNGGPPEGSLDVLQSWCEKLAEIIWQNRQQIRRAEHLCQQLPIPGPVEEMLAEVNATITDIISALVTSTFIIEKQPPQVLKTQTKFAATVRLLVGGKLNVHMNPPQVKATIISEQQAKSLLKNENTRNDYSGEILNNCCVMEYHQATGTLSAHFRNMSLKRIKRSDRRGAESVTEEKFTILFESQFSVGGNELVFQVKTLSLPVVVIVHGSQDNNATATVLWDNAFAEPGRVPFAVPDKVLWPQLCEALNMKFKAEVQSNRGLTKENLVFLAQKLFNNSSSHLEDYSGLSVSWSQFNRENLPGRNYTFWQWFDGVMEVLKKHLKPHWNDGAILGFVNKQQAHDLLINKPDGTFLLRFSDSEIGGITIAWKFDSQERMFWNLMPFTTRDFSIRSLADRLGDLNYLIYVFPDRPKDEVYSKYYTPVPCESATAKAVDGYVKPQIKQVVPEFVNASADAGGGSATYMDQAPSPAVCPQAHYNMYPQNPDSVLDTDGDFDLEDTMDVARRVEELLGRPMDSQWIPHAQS
Description: Induction of STAT5A/5B degradation in human RS4-11 cells measured for 18 hrs by immunoblotting analysis. The class given is cell-based.

In data set [5] the target is T2, Signal transducer and activator of transcription 5A (Homo sapiens, UniProt P42229).
T2 sequence (P42229 whole entry): T1 sequence (P42229 whole entry)
Description: Induction of STAT5 degradation in human Kasumi-3 cells assessed as reduction in phosphorylated STAT5 level measured for 18 hrs by immunoblotting analysis. It is filed as cell-based.

Structures are written as SMILES. Calls of active or inactive are those of the source. The calls are words filed in the database; no cut-off is given here.

Sequence of Protein cereblon (Q96SW2 whole entry): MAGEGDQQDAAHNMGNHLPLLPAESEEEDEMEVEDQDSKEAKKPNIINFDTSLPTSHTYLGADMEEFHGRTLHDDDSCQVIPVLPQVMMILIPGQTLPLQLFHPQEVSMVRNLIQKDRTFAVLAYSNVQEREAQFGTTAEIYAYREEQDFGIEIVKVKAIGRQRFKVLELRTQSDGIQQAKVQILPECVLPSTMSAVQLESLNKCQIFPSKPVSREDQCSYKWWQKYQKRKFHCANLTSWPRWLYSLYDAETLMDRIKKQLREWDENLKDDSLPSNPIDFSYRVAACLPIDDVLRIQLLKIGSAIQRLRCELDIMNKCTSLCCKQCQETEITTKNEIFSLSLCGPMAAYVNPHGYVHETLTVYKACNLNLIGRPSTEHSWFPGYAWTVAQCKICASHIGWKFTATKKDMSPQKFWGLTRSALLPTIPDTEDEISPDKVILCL

Regarding `CN(CCCC#Cc1cccc2c1CN(C1CCC(=O)NC1=O)C2=O)C(=O)CCN(C(=O)[C@@H]1CCCN1C(=O)[C@@H](NC(=O)c1cc2cc(C(F)(F)P(=O)(O)O)ccc2s1)C(C)(C)C)c1ccc(-c2nccs2)cc1` (stereo not given in full), the Ki on Protein cereblon amounted to 0.17 µM. In addition, the IC50 in the data set with MOLM-13 is over 15 µM. For the same compound, in the data set with RS4-11, the Imax is under 5%. In data set [1], this compound gave a CL/F of 12.8 mL/min/kg. The result in the data set with Mus musculus was Active. In addition, the Activity in data set [2] is over 70%. For the same compound, the inhibition in vivo at 50 mg/kg in the data set with MV4-11 [3] is 50%. For the same compound, the inhibition in vivo at 100 mg/kg with MV4-11 [4] was 60%. Further, the DC50 on STAT5A/STAT5B amounted to 0.07 µM; in [5] it was 0.25 µM.
